Reference: US10774080B2, “Pyrimidine compound as JAK kinase inhibitor” (THERAVANCE BIOPHARMA R&D IP, LLC, priority 2017, dated 2020)

Tested on: IL-22 suppressed Filaggrin expression
Experiment: Assay 15: recovery of IL-22 suppressed Filaggrin in normal human epidermal keratinocytes
Type: cell-based
Details: IL-22 50 ng/mL, 4 days
Description: Assay 15: Recovery of IL-22 Suppressed Filaggrin in Normal Human Epidermal Keratinocytes
IL-22 is known to inhibit the expression of terminal differentiation genes, such as Filaggrin. The recovery level of test compound for interleukin-22 (IL-22) suppressed Filaggrin expression was measured in the normal human epidermal keratinocytes (ATCC) using real-time PCR.
Primary epidermal keratinocytes were cultured in a 37° C., 5% CO2 humidified incubator in dermal cell basal medium (ATCC) supplemented with keratinocyte growth kit (ATCC) and 1× Pen/Strep (Life Technologies). Cells were seeded at 5,000 cells/well in BioCoat 96-well plates (Corning) with 100 μl and incubated at 37° C., 5% CO2 for 3 to 4 days till 100% confluency. Then, the medium was removed and replaced with 150 μL of medium containing does-response of test compounds. Compounds were serially diluted in DMSO and then diluted another 1000-fold in media to bring the final DMSO concentration to 0.1%. On day 1 of the assay, cells were incubated with test compounds at 37° C. for 1 h, and followed by the addition of followed by the addition of IL-22 (R&D Systems; final concentration 50 ng/mL) in pre-warmed media (50 μL) for 4 days. […] Fluorescence signals were captured after each cycle. Comparative CT method was used to quantify gene expression with cells without IL-22 and test compounds as baseline control.

## CCS(=O)(=O)N1[C@@H]2CCC[C@H]1C[C@H](N(C)c1nc(CO)c(F)c(Nc3cc(C)[nH]n3)n1)C2 [Compound (I), (2-(((1R,3s,5S)-9-(ethylsulfonyl)-9-azabicyclo[3.3.1]nonan-3-yl)(methyl)amino)-5-fluoro-6-((5-methyl-1H-pyrazol-3-yl)amino)pyrimidin-4-yl)methanol]
  concentration at which recovery of IL-22 suppressed Filaggrin expression was observed: < 1 µM
